In patent US20250087329A1, “PERSONALISED RECOMMENDED DAILY INTAKE FOR NUTRIENTS BASED ON INDIVIDUAL GENETIC RISK SCORES” (SOCIETE DES PRODUITS NESTLE S.A., priority 2021, published 2025):

Assay: not given
Conditions: Person; daily intake; cited from earlier work
For `[Ca+2]` [Calcium], the “UL (tolerable upper intake level)” value is listed as 2500 mg. In the case of `Cl` [Chloride], the “UL (tolerable upper intake level)” value is listed as 3600 mg. For `C[N+](C)(C)CCO` [Choline], the “UL (tolerable upper intake level)” value is given as 3500 mg. For `F` [Fluoride], the “UL (tolerable upper intake level)” value is listed as 10 mg. In the case of `[Mg+2]` [Magnesium], the “UL (tolerable upper intake level)” value is given as 350 mg. For `[Mn+2]` [Manganese], the “UL (tolerable upper intake level)” value is given as 11 mg. In the case of `O=C(O)c1cccnc1` [Niacin (B3), Niacin], the “UL (tolerable upper intake level)” value is listed as 35 mg. In the case of `[P]` [Phosphorus], the “UL (tolerable upper intake level)” value is listed as 4000 mg. For `[Se]` [Selenium], the “UL (tolerable upper intake level)” value is given as 0.4 mg. For `[Na]` [Sodium], the “UL (tolerable upper intake level)” value is given as 2300 mg. For `[Zn]` [Zinc], the “UL (tolerable upper intake level)” value is listed as 40 mg. For `Cc1c(C)c2c(c(C)c1O)CC[C@@](C)(CCC[C@H](C)CCC[C@H](C)CCCC(C)C)O2` [α-tocopherol (Vitamin E), α-tocopherol], the “UL (tolerable upper intake level)” value is given as 1000 mg.

Assay: Dose-response algorithm for vitamin B12 including polygenic risk score effects (Arivale cohort)
Parameters: species or system human
Conditions: 14-18 risk alleles vs 0-4 risk alleles
Description: A linear regression was performed for the selected SNPs against vitamin B12 in the Arivale cohort. The Arivale cohort consists of individuals over 18 years of age who between 2015 and 2019 self-enrolled in a now closed scientific wellness company. Briefly, majority of Arivale participants (˜80%) were residents of Washington or California when in the program (for further information on the Arivale cohort see Wilmanski et al. 2021). Methyl-malonic acid (MMA) was measured as a biomarker for blood B12 concentrations. MMA is inversely correlated with vitamin B12 blood levels. The distribution of the PRS was normally distributed and the average increase in MMA per risk allele was 3.4 units (Table 5) corresponding to a decrease of approximately […] vitamin B12 (cobalamin) per risk allele.
To estimate individual vitamin B12 intake needs, a genetic term that sums the effects of all risk alleles present in an individual was added to the dose-response model in the form: […]
With cobalamin [vitamin B12] the “intake needed by highest risk score group relative to low risk group to reach the same blood levels” value was “five times”.

Same assay, conditions: sufficiency for 97% of the high risk group
For cobalamin [vitamin B12], the “daily vitamin B12 intake needed for vitamin B12 sufficiency” value was “higher than 1500 mcg/day”.
